Assay results taken from US10450266B2, “Sulfonate compound, photoacid generator, and resin composition for photolithography” (SAN-APRO LIMITED, priority 2014, dated 2019).

Tests used:
Assay type in all cases: physicochemical
[1] = Thermal decomposition temperature (TG/DTA, 2% weight reduction); settings: point of 2% weight reduction, 10° C./minute, nitrogen atmosphere
Protocol: The synthesized photoacid generator was measured for the change in weight under a temperature increasing condition of 10° C./minute from 30° C. to 500° C. under a nitrogen atmosphere using a thermal gravimetric/differential thermal analyzer (TG/DTA 6200, available from Seiko Instruments Inc.), and a point where the weight was reduced by 2% was defined as the thermal decomposition temperature.

Solvent solubility = settings: for Solvent solubility, PGMEA / Solvent solubility, Butyl acetate / Solvent solubility, Toluene: 25° C.
Protocol: In a test tube, 0.1 g of the synthesized photoacid generator was placed, and an organic solvent (butyl acetate, toluene or PGMEA) was added thereto in 0.2 g portions under a condition where the temperature was adjusted to 25° C. until the photoacid generator was completely dissolved. In this connection, in the case where the photoacid generator was not completely dissolved even when 20 g of the solvent was added, the photoacid generator was evaluated as one that was not dissolved.

[2] = Molar extinction coefficient at i-line (365 nm), UV-visible spectrophotometer; settings: 365 nm (i-line), 0.25 mmol/L in acetonitrile, 1 cm cell
Protocol: The synthesized photoacid generator was diluted to 0.25 mmol/L with acetonitrile, and using an ultraviolet-visible spectrophotometer (UV-2550 available from SHIMADZU CORPORATION), the absorbance in a range of 200 nm to 500 nm was measured with a cell having an optical path length (a cell length) of 1 cm. The molar extinction coefficient of i-line (365 nm) (ε365) was calculated from the following equation. ε365(L·mol^−1·cm^−1)=A365/(0.00025 mol/L×1 cm) [In the equation, A365 represents the absorbance at 365 nm.] <Resist Curing Properties>

Row | Compound | Thermal decomposition temperature [1] | Solvent solubility, PGMEA (Solvent solubility) | Solvent solubility, Butyl acetate (Solvent solubility) | Solvent solubility, Toluene (Solvent solubility) | Molar extinction coefficient [2] | solubility to a solvent (in words) (Solvent solubility; summary of Table 1)
1 | CN(OS(=O)(=O)CC12CCC(CC1=O)C2(C)C)C(=O)c1ccc2ccccc2c1 (stereo not shown) [A-1] | 230 °C | 20 wt % | 20 wt % | 12 wt % | 80 L/mol/cm | 
2 | COc1ccc2cc(C(=O)N(C)OS(=O)(=O)CC34CCC(CC3=O)C4(C)C)ccc2c1 (stereo not shown) [A-2] | 225 °C | 15 wt % | 15 wt % | 10 wt % | 120 L/mol/cm | 
3 | COc1cc2c(OC)cccc2cc1C(=O)N(C)OS(=O)(=O)CC12CCC(CC1=O)C2(C)C (stereo not shown) [A-3] | 225 °C | 15 wt % | 15 wt % | 10 wt % | 360 L/mol/cm | 
4 | COc1cc2c(OC)cccc2cc1C(=O)N(C)OS(C)(=O)=O [A-4] | 225 °C | 20 wt % | 20 wt % | 10 wt % | 300 L/mol/cm | 
5 | COc1cc2c(OC)cccc2cc1C(=O)N(C)OS(=O)(=O)c1c(F)c(F)c(F)c(F)c1F [A-5] | 225 °C | 10 wt % | 10 wt % | 10 wt % | 400 L/mol/cm | 
6 | CC(=O)c1ccc(Sc2ccc(C(=O)N(C)OS(=O)(=O)CC34CCC(CC3=O)C4(C)C)cc2)cc1 (stereo not shown) [A-6] | 210 °C | 15 wt % | 15 wt % | 10 wt % | 450 L/mol/cm | 
7 | COc1ccc2cc(C(=O)N(C)OS(=O)(=O)CC34CCC(CC3=O)C4(C)C)c(=O)oc2c1 (stereo not shown) [A-7] | 220 °C | 15 wt % | 15 wt % | 10 wt % | 6500 L/mol/cm | 
8 | CN(OS(=O)(=O)CC12CCC(CC1=O)C2(C)C)C(=O)c1c2ccccc2cc2ccccc12 (stereo not shown) [A-8] | 240 °C | 5 wt % | 5 wt % | 10 wt % | 9000 L/mol/cm | 
9 | CC1(C)C2CCC1(CS(=O)(=O)OC1C(=O)c3cccc4cccc(c34)C1=O)C(=O)C2 (stereo not shown) [A′-1, reference compound] | 225 °C | 0.5 wt % | 1 wt % | 0.5 wt % | 330 L/mol/cm | insufficient
